The results in this text go back to PubChem BioAssay AID504573 (Southern Research Specialized Biocontainment Screening …, 2011).

In the test the test system is host cell cytotoxicity, % cell control, 5% serum. The test is described as follows: viability loss in CCR5-tropic fusion assay cells – cell-based, 5% serum, set 2, cytotoxicity control for HIV-1 antiviral lead project, dose response (AID 504573).

SMILES strings stand for the structures.

As a reminder, the CC50 is the concentration giving 50% cytotoxicity.

Take `COc1ccccc1Cn1c(O)cc2nn(-c3nc4ccccc4s3)c(=O)c-2c1C`: the CC50 was 8.08 µM.
In the case of `Cc1c2c(=O)n(-c3nc4ccccc4s3)nc-2cc(O)n1Cc1cccs1`, the CC50 is 5.94 µM.
On to `Cc1c2c(=O)n(-c3nc4ccccc4s3)nc-2cc(O)n1Cc1ccccc1`, for which the CC50 was 5.4 µM.
For the compound `COc1ccc(Cn2c(O)cc3nn(-c4nc5ccccc5s4)c(=O)c-3c2C)cc1`, the CC50 is 5.15 µM.
On to `Cc1c2c(=O)n(-c3nc4ccccc4s3)nc-2cc(O)n1Cc1ccc(F)cc1`, for which the CC50 is 4.4 µM.
Turning to `Cc1c2c(=O)n(-c3nc4ccccc4s3)nc-2cc(O)n1Cc1cccnc1`, the CC50 was 3.89 µM.
Consider `Cc1c2c(=O)n(-c3nc4ccccc4s3)nc-2cc(O)n1CCC(C)C`, for which the CC50 was 5.64 µM.
The same measure for `Cc1c2c(=O)n(-c3nc4ccccc4s3)nc-2cc(O)n1CCc1ccc(O)cc1`: 3.74 µM; for `Cc1c2c(=O)n(-c3nc4ccccc4s3)nc-2cc(O)n1C1CC1`: 4.98 µM.
As to `Cc1c2c(=O)n(-c3nc4ccccc4s3)nc-2cc(O)n1Cc1ccccc1Cl`, the CC50 was 4.34 µM.
As to `Cc1c2c(=O)n(-c3nc4ccccc4s3)nc-2cc(O)n1Cc1ccncc1`, the cytotoxic concentration (CC50) is 5.07 µM.
As for `Cc1c2c(=O)n(-c3nc4ccccc4s3)nc-2cc(O)n1CCc1cccs1`, the CC50 was 5.51 µM.
Turning to `COc1ccc(CCn2c(O)cc3nn(-c4nc5ccccc5s4)c(=O)c-3c2C)cc1`, the CC50 was 7.2 µM.
